Earlier results, collected in patent publication US20230346708A1, “STABLE FORMULATIONS OF ANTI-CANCER PEPTIDES” (Oncolyze, Inc., priority 2020, published 2023).

Tested on: cancer cells
Conditions: cancer cells vs normal cells; general statement, no data shown

## ETFSDLWKLLKKWKMRRNQFWVKVQRG [PNC-28, p53 aa17-26-MRP anti-cancer peptide]
  Tumor cell necrosis: induce tumor cell necrosis of cancer cells, but not normal cells
